In article PMC9159100, “Intramitochondrial co-assembly between ATP and nucleopeptides induces cancer cell apoptosis” (Chemical Science, 2022):
Square brackets hold non-standard residues; d marks the D form. Peptide text beside a SMILES is read from it. * marks the point of attachment. Acetyl(thymin-1-yl) = Cc1cn(CC(=O)*)c(=O)[nH]c1=O; Cha = N[C@@H](CC1CCCCC1)C(=O)O

Key:
[1] = Turbidity / appearance of aqueous solution (photograph, transmittance at 280 nm); assay type: physicochemical; settings: 200 μM in aqueous solution, ATP added
Procedure: First, we investigated the self-assembly ability and interaction between MNP and ADP or ATP. […] As can be evinced from Fig. 1b and c, the formed nanostructure consisted of approximately 500 nm-sized micellar structures according to transmission electron microscopy (TEM) and scanning electron microscopy (SEM). This is further confirmed by the turbidity of the solution which was determined by transmittance using UV-Vis spectroscopy. […] Transmission electron (TEM) microscopy images of (a) MNP/ADP complex (scale bar: 100 nm) and (b) MNP/ATP complex at 200 μM concentration in aqueous solution (scale bar: 500 nm); (c) scanning electron microscopy image of the MNP/ATP complex at 200 μM concentration in aqueous solution (scale bar: 500 nm); (d) sample turbidity measured by transmittance at 280 nm (inset: photograph) of the MNP, MNP/ADP complex and MNP/ATP complex at 200 μM concentration in aqueous solution; (e) confocal images of the MNP-NBD/ATP complex (Scale bar: 1 μm); (f) photograph of the aqueous solutions of the control molecules (AcNP and MNP2) and MNP in a complex with ATP (concentration: 200 μM). […] S3. ^† Micellar structures characterized by green fluorescence (Fig. 1e) were observed by confocal laser scanning microscopy performed on the MNP-NBD/ATP complex at 200 μM concentration in aqueous solution. […]

IMR90 cells = assay type: cell-based
Procedure: page 16: S7. Cell culture and MTT assay Cell culture: HeLa and IMR90 cells were purchased from American-type Culture Collection (ATCC, USA). Hela and IMR90 were cultured in Dulbecco’s Modified Eagle’s medium (DMEM) supplemented with 10% v fetal bovine serum (FBS), 100 U/mL penicillin and 100 μg/mL streptomycin. All cells were cultured at 37 °C in a […] For MTT assay, cells were seeded in a 96-well plate with the density of 5*103 cells per-well. After 24 hours seeding, the solutions of samples with a serial of concentr ations (5 concentrations and control) were added to each well. 10 μL MTT solution (5 mg/mL) was added to each well and incubated at 37°C for 2 days incubation and incubated for another 4 h, and then 100 μL of SDS-HCl solution was added to stop the reductio n reaction and dissolve the purple formazan. The absorbance of each well at 595 nm was measured by a multimode microplate reader. The cytotoxicity assay was performed three times and the average value of the three measurements was taken. ATP depletion method: Cells were pre -incubated with 10 mM sodium azide ( NaN3), 6 mM 2DG(2-deoxy-glucose) […] After 40 minutes, cells were washed with PBS and free medium. MNP/ADP complex was treated to ATP depleted HeLa cells for 48 hours to assess cytotoxicity.

Row | SMILES | appearance of solution in the presence of ATP [1] | toxicity toward IMR90 cells above 25 μM (IMR90 cells) | toxicity toward IMR90 cells at 25 μM (IMR90 cells)
1 | Cc1cn(CC(=O)N[C@H](CCCNC(=N)N)C(=O)N[C@H](CCCNC(=N)N)C(=O)N[C@@H](CC2CCCCC2)C(=O)N[C@H](CCCNC(=N)N)C(=O)N[C@@H](CC2CCCCC2)C(=O)N[C@H](CCCNC(=N)N)C(=O)N[C@@H](CC2CCCCC2)C(=O)O)c(=O)[nH]c1=O [MNP2, Thy–rrFxrFxrFx] ({Acetyl(thymin-1-yl)}-[dR][dR][Cha][dR][Cha][dR][Cha]-OH) | did not become cloudy | – | –
2 | CC(=O)N[C@H](CCCNC(=N)N)C(=O)N[C@H](CCCNC(=N)N)C(=O)N[C@@H](CC1CCCCC1)C(=O)N[C@H](CCCNC(=N)N)C(=O)N[C@@H](CC1CCCCC1)C(=O)N[C@H](CCCNC(=N)N)C(=O)N[C@@H](CC1CCCCC1)C(=O)N[C@@H](Cc1ccccc1)C(=O)N[C@@H](Cc1ccccc1)C(=O)O [AcNP, Ac–rrFxrFxrFxFF] (Ac-[dR][dR][Cha][dR][Cha][dR][Cha]FF-OH) | – | less toxicity | almost no toxicity
